Laboratory results published in paper PMC5807507, “Crystal structures of a bacterial dipeptidyl peptidase IV reveal a novel substrate recognition mechanism distinct from that of mammalian orthologues” (Scientific Reports, 2018).
Where two headings read alike, the source gives them in different places.

Assays:
PmDAP IV [1] = biological target: T1, PmDAP IV (Pseudoxanthomonas mexicana, UniProt Q6F3I7); assay: Gly-Pro-MCA fluorescence hydrolysis inhibition; Ki by Cheng-Prusoff; format: biochemical
T1 construct: gene dap4; M12I lies in the removed signal; no tag; 723 residues, 82-kDa; homodimer; crystal model Ala22-Pro745
Excerpt: Gly-Pro-MCA fluorescence hydrolysis inhibition; Ki by Cheng-Prusoff on PmDAP IV
Target sequence in this assay (Q6F3I7 22-745): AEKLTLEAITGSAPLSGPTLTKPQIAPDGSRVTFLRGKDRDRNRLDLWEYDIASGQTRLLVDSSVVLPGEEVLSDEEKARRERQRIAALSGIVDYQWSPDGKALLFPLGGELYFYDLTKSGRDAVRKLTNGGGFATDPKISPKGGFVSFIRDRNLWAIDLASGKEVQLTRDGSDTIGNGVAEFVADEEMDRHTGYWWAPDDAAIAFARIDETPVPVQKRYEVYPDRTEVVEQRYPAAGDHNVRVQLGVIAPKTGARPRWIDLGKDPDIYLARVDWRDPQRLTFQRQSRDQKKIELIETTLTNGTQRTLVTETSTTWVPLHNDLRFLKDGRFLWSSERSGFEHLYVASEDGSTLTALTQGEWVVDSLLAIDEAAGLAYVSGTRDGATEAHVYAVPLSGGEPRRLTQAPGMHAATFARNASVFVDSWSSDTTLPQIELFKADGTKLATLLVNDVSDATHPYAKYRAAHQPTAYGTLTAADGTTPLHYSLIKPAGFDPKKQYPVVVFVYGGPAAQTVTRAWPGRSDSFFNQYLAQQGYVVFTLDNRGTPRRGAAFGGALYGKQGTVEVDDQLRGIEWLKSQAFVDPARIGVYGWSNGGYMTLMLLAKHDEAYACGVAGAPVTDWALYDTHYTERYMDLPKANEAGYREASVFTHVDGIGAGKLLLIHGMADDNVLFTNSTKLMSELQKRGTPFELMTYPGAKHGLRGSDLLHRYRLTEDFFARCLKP

PmDAP IV [2] = biological target: T1, PmDAP IV; assay: biochemical
Procedure: Inhibitor sensitivities of PmDAP IV and human DPP IV Gliptins and diprotin A were purchased from NAMIKI SHOJI Co., Ltd. (Tokyo, Japan) and Peptide Institute, Inc. (Osaka, Japan), respectively. Half-maximal inhibitory concentration (IC50) values were determined by fitting to a sigmoid curve (4-parameter logistic curve) using ImageJ[73]. […] Inhibitor concentrations for PmDAP IV were 0.78, 1.56, 3.13, 6.25, 12.5, 25, 50 and 100 µM, and those for human DPP IV were 0.78, 1.56, 3.13, 6.25, 12.5, 25, 50 and 100 nM. Standard deviations were calculated from three independent experiments. Fluorescence intensity was measured with excitation at 355 nm and emission at 460 nm using an Infinite 200 PRO microplate reader. Inhibition constants (Ki) were calculated using the Cheng-Prusoff equation[74]. Arg106 of PmDAP IV, which is involved in the recognition of the carbonyl group of the P2 residue of the substrate peptide, was mutated to Ala or Lys. The mutants were expressed and purified using the method described above for wild-type PmDAP IV. Recombinant human DPP IV was purchased from ATGen Co., Ltd. (Los Angeles, USA). Kinetic parameters were determined by fitting the experimental data to the Michaelis–Menten equation using Excel Solver (Microsoft) by nonlinear least squares fitting for different concentrations (0.78, 1.56, 3.13, 6.25, 12.5, 25, 50 and 100 µM) of glycyl-L-proline 4-methylcoumaryl-7-amide (Gly-Pro-MCA, Peptide Institute) as a substrate. The enzyme reaction was performed in a reaction buffer containing 50 mM sodium phosphate buffer pH 8.0, 5 mM EDTA and 0.005% Tween 20 at 298 K for 20 min, and standard deviations were calculated from three independent experiments. The fluorescence intensity of the released MCA was measured with excitation at 355 nm and emission at 460 nm using an Infinite 200 PRO microplate reader (TECAN).
Target sequence in this assay (Q6F3I7 22-745 limits assumed): as the sequence (Q6F3I7 22-745) above

Row | SMILES | Ki (PmDAP IV [1]) | IC50 (PmDAP IV [2]) | Ki (PmDAP IV [1]; read-out: PmDAP IV / Ki)
1 | N[C@@H](CC(=O)N1CCn2c(nnc2C(F)(F)F)C1)Cc1cc(F)c(F)cc1F [Sitagliptin] | 4 ± 0.59 µM | 24.6 ± 3.6 µM | 
2 | Cn1c(=O)cc(N2CCC[C@@H](N)C2)n(Cc2cc(F)ccc2C#N)c1=O [Trelagliptin] |  | > 100 µM | 
3 | CC#CCn1c(N2CCC[C@@H](N)C2)nc2c1c(=O)n(Cc1nc(C)c3ccccc3n1)c(=O)n2C [Linagliptin] |  | > 100 µM | 30 ± 1.16 µM
4 | CS(=O)(=O)n1cc2c(n1)CN([C@H]1CO[C@H](c3cc(F)ccc3F)[C@@H](N)C1)C2 [Omarigliptin] |  | > 100 µM | 23.8 ± 3.8 µM

Continued, values first:

Row | Ki (PmDAP IV [1]) | IC50 (PmDAP IV [2]) | Ki (PmDAP IV [1]; read-out: PmDAP IV / Ki) | SMILES
5 | 3.07 ± 0.39 µM | 18.8 ± 2.4 µM |  | N#C[C@@H]1CCCN1C(=O)CNC12CC3CC(CC(O)(C3)C1)C2 [Vildagliptin]
6 |  |  | 2.34 ± 0.09 µM | Cc1cc(N2CCN([C@@H]3CN[C@H](C(=O)N4CCSC4)C3)CC2)n(-c2ccccc2)n1 [Teneligliptin]
7 | 1.85 ± 0.13 µM | 11.1 ± 0.8 µM |  | N#C[C@@H]1C[C@@H]2C[C@@H]2N1C(=O)[C@@H](N)C12CC3CC(CC(O)(C3)C1)C2 [Saxagliptin]
8 |  | 24.5 ± 0.4 µM | 3.99 ± 0.07 µM | Cc1cc2ncc(C(=O)NCC(C)(C)NCC(=O)N3CCC[C@H]3C#N)cn2n1 [Anagliptin]
